Among the test systems are OVCAR-4 ovarian; SK-MEL-28 melanoma; SF-268 CNS; UACC-62 melanoma; HCC-2998 colon; IGROV1 ovarian; NCI-H23 lung; CCRF-CEM leukemia.
Holding throughout (assay): NCI anticancer screen, dose series, 48 h

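Step 1: Grow cells in 96-well plates. Step 2: Expose to compound for 48 hours at 5 concentrations. Step 3: Interpolate endpoints linearly; if unreached, use highest concentration. Here, GI50 denotes the concentration required for 50% inhibition of growth. Definition used: TGI = concentration required for complete inhibition of growth.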

For `Cc1cccc(C(C)(C)C)c1NC(=O)C(=O)Cc1nc2ccccc2s1`, the TGI with OVCAR-4 ovarian, in the assay with SK-MEL-28 melanoma, in the assay on SF-268 CNS, in the assay with UACC-62 melanoma, with HCC-2998 colon and with IGROV1 ovarian was above 100 µM in each case. This compound returned a TGI in the assay with NCI-H23 lung above 100 µM.

For `Cc1nc2nnc(C)n2c2c1C(=O)Nc1ccccc1N2`, the TGI with SK-MEL-28 melanoma, with SF-268 CNS, with UACC-62 melanoma, in the assay on CCRF-CEM leukemia, in the assay on HCC-2998 colon and with IGROV1 ovarian was above 100 µM each time. Besides, the TGI in the assay on NCI-H23 lung is above 100 µM.

Consider `C1CN2N3CCCC23C1` (centres undefined), for which the TGI with OVCAR-4 ovarian, in the assay on SK-MEL-28 melanoma, with SF-268 CNS, in the assay with UACC-62 melanoma, in the assay on CCRF-CEM leukemia and in the assay on HCC-2998 colon was above 100 µM each time. The TGI in the assay with IGROV1 ovarian and with NCI-H23 lung was above 100 µM in each case.

As to `C#CC(C)(C)Oc1cc(O)c2c(=O)c3ccccc3n(C)c2c1`, the TGI in the assay with OVCAR-4 ovarian, in the assay with SK-MEL-28 melanoma, in the assay on SF-268 CNS, in the assay with UACC-62 melanoma, with CCRF-CEM leukemia and in the assay on HCC-2998 colon was above 100 µM throughout. The TGI with IGROV1 ovarian and in the assay with NCI-H23 lung was above 100 µM each time.

Take `O=C(/C=C(\[O-])c1ccccc1)CCCCCCC(=O)/C=C(\[O-])c1ccccc1.O=C(/C=C(\[O-])c1ccccc1)CCCCCCC(=O)/C=C(\[O-])c1ccccc1.O=C(/C=C(\[O-])c1ccccc1)CCCCCCC(=O)/C=C(\[O-])c1ccccc1.[La+3].[La+3]`: the GI50 in the assay with OVCAR-4 ovarian, in the assay on SK-MEL-28 melanoma, with SF-268 CNS, in the assay with UACC-62 melanoma, in the assay with HCC-2998 colon and in the assay with IGROV1 ovarian was above 50 µM in each case. The GI50 with NCI-H23 lung was above 50 µM. Moreover, the TGI in the assay with OVCAR-4 ovarian, in the assay with SK-MEL-28 melanoma, in the assay with SF-268 CNS, in the assay with UACC-62 melanoma, in the assay on HCC-2998 colon and in the assay on IGROV1 ovarian was above 50 µM each time. In the assay with NCI-H23 lung, this compound registered a TGI above 50 µM.

For `CC1CCC[P+](Cc2ccccc2)(c2ccccc2)CC1` (centres undefined), the TGI was 90.4 µM with OVCAR-4 ovarian; above 100 µM in the assay on SK-MEL-28 melanoma; above 100 µM in the assay with SF-268 CNS; above 100 µM in the assay on UACC-62 melanoma; above 100 µM with CCRF-CEM leukemia; above 100 µM with HCC-2998 colon. Moreover, the TGI with IGROV1 ovarian and in the assay with NCI-H23 lung was above 100 µM throughout.

For `O=[N+]([O-])c1ccc(NSc2ccccc2)cc1`, the TGI in the assay with SK-MEL-28 melanoma is above 100 µM; with SF-268 CNS, above 100 µM; with UACC-62 melanoma, 55.7 µM; in the assay on CCRF-CEM leukemia, above 100 µM; with HCC-2998 colon, above 100 µM; in the assay on IGROV1 ovarian, 27.7 µM. Also, the TGI with NCI-H23 lung was above 100 µM.

Take `C[Si](C)(C)c1ccc(CC2(Cc3ccc([Si](C)(C)C)cc3)CCNC2)cc1`: the TGI came to 4.52 µM in the assay with OVCAR-4 ovarian; 5.05 µM in the assay with SK-MEL-28 melanoma; 4.71 µM in the assay on SF-268 CNS; 3.96 µM with UACC-62 melanoma; 48.1 µM in the assay with CCRF-CEM leukemia; 4.43 µM in the assay with HCC-2998 colon. Besides, the TGI in the assay with IGROV1 ovarian amounted to 7.12 µM; with NCI-H23 lung, 3.47 µM.

Take `CCOC(=O)CCCO`: the TGI in the assay on SK-MEL-28 melanoma, in the assay on SF-268 CNS, in the assay on UACC-62 melanoma, in the assay with CCRF-CEM leukemia, in the assay on HCC-2998 colon and in the assay on IGROV1 ovarian was above 100 µM each time. The compound also registered a TGI in the assay on NCI-H23 lung above 100 µM.

As to `O=C1Oc2cc3c(c4cccc1c24)OCN(c1ccc(Cl)cc1)C3`, the TGI in the assay with OVCAR-4 ovarian is 96.6 µM; in the assay with SK-MEL-28 melanoma, above 93.6 µM; in the assay with SF-268 CNS, above 100 µM; in the assay on UACC-62 melanoma, above 75 µM; in the assay on CCRF-CEM leukemia, 45.7 µM; in the assay on HCC-2998 colon, above 100 µM. In addition, the TGI in the assay on IGROV1 ovarian and with NCI-H23 lung was above 100 µM in each case.

`C[C@]12CCC(=O)C=C1CC[C@@H]1C2CC[C@]2(C)NC(=O)C(C#N)CC12` (some centres undefined): the TGI in the assay with OVCAR-4 ovarian, with SK-MEL-28 melanoma, in the assay on UACC-62 melanoma, with CCRF-CEM leukemia, with HCC-2998 colon and in the assay on IGROV1 ovarian was above 100 µM in each case. In addition, in the assay with NCI-H23 lung, the TGI is above 100 µM.

On to `O=S(=O)(O)C(O)/C=C/c1ccccc1` (centres undefined), for which the TGI in the assay on OVCAR-4 ovarian, in the assay on SK-MEL-28 melanoma, with SF-268 CNS, in the assay on UACC-62 melanoma, in the assay on CCRF-CEM leukemia and in the assay with HCC-2998 colon was above 100 µM each time. Besides, the TGI in the assay with IGROV1 ovarian and with NCI-H23 lung was above 100 µM in each case.

For `NC1(CCCCCCCCCCC(=O)O)CNCCNCCNCCNC1`, the TGI is above 100 µM with OVCAR-4 ovarian; above 100 µM in the assay with SK-MEL-28 melanoma; above 100 µM with SF-268 CNS; above 100 µM in the assay with UACC-62 melanoma; above 100 µM with CCRF-CEM leukemia; 46 µM in the assay with HCC-2998 colon. For the same compound, the TGI in the assay with IGROV1 ovarian and with NCI-H23 lung was above 100 µM throughout.

Consider `O=C(O)c1cc(S(=O)(=O)N=NC=C2c3ccccc3N(O)c3ccccc32)ccc1O`, for which the TGI with OVCAR-4 ovarian is 19.8 µM; with SK-MEL-28 melanoma it was 30.9 µM; with SF-268 CNS, 34.4 µM; in the assay with UACC-62 melanoma it was 22 µM; in the assay with CCRF-CEM leukemia it was 86 µM; in the assay with HCC-2998 colon, 37.9 µM. For the same compound, the TGI was 83.1 µM in the assay on IGROV1 ovarian and 53.3 µM in the assay on NCI-H23 lung.

As for `O=C1NC(=O)C2C(=O)NC(=O)C1C2(c1ccccc1)c1ccc(Cl)cc1` (centres undefined), the TGI with OVCAR-4 ovarian, in the assay on SK-MEL-28 melanoma, in the assay on SF-268 CNS, with UACC-62 melanoma, in the assay with CCRF-CEM leukemia and with HCC-2998 colon was above 100 µM each time. The TGI with IGROV1 ovarian and in the assay on NCI-H23 lung was above 100 µM throughout.

As to `CC1=C[C@@H]2Cc3occc3C(C)(C)[C@@H]2CC1`, the TGI is 84.4 µM in the assay on OVCAR-4 ovarian; 49.5 µM in the assay with SK-MEL-28 melanoma; 38.3 µM in the assay on SF-268 CNS; above 10 µM in the assay with UACC-62 melanoma; 35.6 µM with CCRF-CEM leukemia; 36.2 µM in the assay with HCC-2998 colon. In addition, the TGI in the assay on IGROV1 ovarian is above 10 µM; in the assay on NCI-H23 lung, 57.3 µM.

For the origin of these results see PubChem BioAssay (NCI).
